According to patent publication US5198533A, “LHRH antagonists” (The Administrators of the Tulane Educational Fund, priority 1988, dated 1993):
Where a SMILES comes first, the peptide text is derived from it. [ ]: non-standard residue; d: D form. dPhe(4-Cl) = N[C@H](Cc1ccc(Cl)cc1)C(=O)O; d2Nal = N[C@H](Cc1ccc2ccccc2c1)C(=O)O; dCit = NC(=O)NCCC[C@@H](N)C(=O)O; d3Pal = N[C@H](Cc1cccnc1)C(=O)O

System: edema of the face and extremities
Assay: edematogenic test of Schmidt, et al.
Assay type: in vivo, rat
Settings: 1.5 mg/kg s.c. once a day on two consecutive days
Protocol: In the edematogenic test of Schmidt, et al. (Contraception, 29, 283-289, 1984), however, a marked difference can be found between the control peptides and the peptides of the present invention. The control […] 1.50 mg/kg. No such reaction can be observed with the peptides of the present invention when given at a subcutaneous dose of 1.5 mg/kg.
In the tests as run, the rats were assigned to three groups of […] per group per compound tested. Comparison was made with a known prior art compound designated ORG 30276 namely (N-Ac-D-p-Cl-Phe^1,2,D-Trp^3,D-Arg^6,D-Ala^10)-LHRH. The groups were injected subcuntaneously once a day on two consecutive days with the LHRH antagonists at a dose level of 1.5 mg/kg. One control group was injected with diluent only. The rats were observed during five hours each day. Reactions of the rats were classified as follows: NR no apparent reaction, PR partial responders: edema of the nasal and paranasal area, FR full responders: facial edema with edematous extremities.

CC(=O)N[C@H](Cc1ccc2ccccc2c1)C(=O)N[C@H](Cc1ccc(Cl)cc1)C(=O)N[C@H](Cc1cccnc1)C(=O)N[C@@H](CO)C(=O)N[C@@H](Cc1ccc(O)cc1)C(=O)N[C@H](CCCNC(N)=O)C(=O)N[C@@H](CC(C)C)C(=O)N[C@@H](CCCNC(=N)N)C(=O)N1CCC[C@H]1C(=O)N[C@H](C)C(N)=O [EX XXVI, Ac-D-Nal-D-Phe(4-Cl)-D-Pal(3)-Ser-Tyr-D-Cit-Leu-Arg-Pro-D-AlaNH2] (Ac-[d2Nal][dPhe(4-Cl)][d3Pal]SY[dCit]LRP[dA]-NH2)
2nd Day PR (number of rats, partial responders: edema of the nasal and paranasal area) (* = very light edema of the face): 0
1st Day FR (number of rats, full responders: facial edema with edematous extremities) (observed five hours each day): 0
1st Day NR (number of rats, no apparent reaction) (observed five hours each day): 8
1st Day PR (number of rats, partial responders: edema of the nasal and paranasal area) (observed five hours each day): 0
2nd Day FR (number of rats, full responders: facial edema with edematous extremities) (observed five hours each day): 0
2nd Day NR (number of rats, no apparent reaction) (observed five hours each day): 8
